This is an account of results in patent US20070048329A1, “Epstein barr virus peptide epitopes, polyepitopes and delivery system therefor” (priority 2002, published 2007).

What all share (type): cell-based, human
Test [1] has as its system peptide-sensitised PHA blasts and LCLs. Description: 51Cr-release cytotoxicity assay with peptide-specific CTL lines and clones. The following applies: for sensitizing autologous PHA blast to lysis by YLLEMLWRL-specific CTL clone: serial dilutions of peptide, compared with wild-type YLLEMLWRL, CTL clone SB7; for generation of CTL lines with minimised epitope: donors. Here is the method: Polyclonal CTL lines and LMP1-specific CTL clones were established according to previously published methods (Moss 1988; Khanna 1998). Briefly, 2×10^6 PBMCs were stimulated with 1×10^6 autologous lymphocytes (responder to stimulator ratio of 2:1) pulsed with 10 μM peptide for 1 hr in 2 ml in a 24-well plate. After 3 days, culture medium with IL-2 (10 U/ml) was added and the cells were further expanded. These lymphocytes were restimulated on day 7 with γ-irradiated (8000 rad) autologous LCLs. After 10 days in culture medium, the cells were used as polyclonal effectors in a standard ^51Cr-release assay against peptide-sensitised autologous PHA blasts.
To generate peripheral blood CTL clones specific for the LMP1 derived peptides, PBMCs of healthy donors were reactivated (2×10^6) PBMCs with peptide-sensitised (10 ug of peptide/ml) autologous lymphocytes (1×10^6) in 2 ml wells of a 24-well plate in culture medium. After 3 days, the cells were seeded onto 0.35% agarose and maintained in T cell growth medium containing rIL2 (50 IU/ml). After another 3 days, growing clones were transferred to 96-well round-bottom tissue culture plates (Life Technologies) and cultured in T cell growth medium containing rIL2 (50-100 IU/ml).
Target cells were pre-sensitized with synthetic peptide epitopes and then incubated with ^51Cr for 90 min. Following incubation, these cells were washed in growth medium and used as targets in a standard 5 h ^51Cr-release assay (Moss, 1988)
To further characterize the minimal T cell epitopes defined by ELISPOT assays we generated polyclonal and clonal CTL lines specific for these epitopes. PBMCs from the healthy seropositive donors were stimulated with synthetic peptide epitopes and the CTL clones or polyclonal lines were established and tested in standard ^51Cr-release assays. The […] peptide-specific CTL clones were generated using initial stimulation with peptide-sensitized autologous PBMC followed by continuous restimulation with irradiated autologous LCL. These CTL clones were screened for […]-specific CTL activity by ^51Cr release assays against peptide-sensitised autologous and allogeneic PHA blast and LCLs. […] Titration of this minimal epitope on autologous PHA blasts further confirmed the fine specificity of this CTL clone (FIG. 5B).

Test [2] has as its system T cells in PBMC of EBV seropositive donors. The test is described as follows: IFN-γ ELISPOT assay, ex vivo stimulation of PBMC with LMP1 peptides. Here is the method:
The ELISPOT assay was used to assess whether stimulation of PBMC from a large panel of seropositive donors with LMP1 peptides could induce IFN-γ expression in T cells (Bharadwaj 2001). Briefly, ninety six-well mixed cellulose ester membrane plates (Millipore, Bedford, USA) were precoated with 100 μL/well of […] of anti-IFN-γ mAb, 1-D1K (Mabtech, Stockhohn, Sweden) overnight at 4° C. The plate was washed six times with phosphate-buffered saline (PBS), and unreactive sites blocked using 5% foetal bovine serum. PBMCs from healthy EBV carriers of known HLA types were separated from whole blood by Ficoll-Hypaque (Sigma) density gradient centrifugation. PBMCs were added in triplicate wells at 2.5×10^5 cells in a volume of 100 μL/well, and then peptides were added onto the PBMCs at a final 5 μg/mL concentration. PBMCs were also tested at different concentrations in triplicate wells at 2.5×10^5, 1.5×10^5 and 1×10^5 cells/well. PBMCs with various peptide concentrations, 10 μg/mL, 5 μg/mL and 1 μg/mL, were assayed. For negative controls, PBMCs were incubated in growth medium alone without adding peptides. The plate was incubated at 37° C. with 5% CO2 overnight (about 16-20 hr), then washed thrice with PBST (0.05% of Tween-20 in PBS) and three times with PBS before 100 μL/well of 1 μg/mL anti-IFN-γ mAb, 7-B6-1 (Mabtech, Stockholn, Sweden) was added and incubated at room temperature for 3-4 hr. After incubation, the plate was washed again thrice each with PBST and PBS, and 100 μL/well of 1 μg/mL streptavidin-alkaline phosphatase conjugate (Sigma) was added. The plate was incubated at room temperature for 2 hr. Wells were washed again three times each with PBST and PBS, and individual IFN-γ-producing cells were detected as dark spots after about 30-min to an hour-colour reaction with 5-bromo-4-chloro-3-indolylphosphate and nitroblue tetrazolium using an alkaline phosphatase-conjugated substrate (BCIP/NBT; Sigma). Spots were counted automatically using an image analysis software (ImagePro) (Bharadwaj 2001), and were expressed as spot-forming cells (SFC) per 10^6 PBMCs. The number of IFN-γ-secreting T cells was calculated by subtracting the negative control value from the SFC count.
To comprehensively profile the memory T cell responses against the LMP1 in seropositive virus carriers we used the ELISPOT assay, which allowed rapid ex vivo profiling of LMP1-specific immune response without prolonged in vitro culture. PBMC isolated from a panel of seropositive healthy virus carriers (Table 2) were stimulated with the complete set of overlapping LMP1 peptides and the cells that produced IFN-γ were detected. […] One of the interesting features of these responses was that the majority of the T cell reactivity was directed towards the epitopes within the transmembrane and CTAR1 domains of LMP1, while no reactivity was observed towards the CTAR2 and N-terminus (FIG. 1B). In particular, almost 80% of the CTAR1 domain was targeted for T cell recognition. To identify the T cell subsets responding to these peptides, PBMCs from the seven donors who recognized 17-mer peptides were fractionated into CD4-depleted and CD8-depleted populations and then tested again in ELISPOT assays. […] The CD4-dependent reactivity of the peptide […] was consistent with the previous observations by Leen and colleagues who mapped an HLA DQ2-restricted epitope within this sequence.
In order to determine the frequency of recognition of the HLA class I-restricted LMP1 CTL epitopes, PBMC from a panel of healthy virus carriers of diverse ethnic origin were screened by ELISPOT assays. Four different HLA class I-restricted and one HLA class II-restricted T cell epitopes were included in this analysis. Strong responses were observed against the HLA-A2-restricted […], […] and […] epitopes in 35-45% of the donors tested. […]

Test [3] deals with CD4+ and CD8+ T cell populations of PBMC. The test is described as follows: IFN-γ ELISPOT on CD4- or CD8-depleted PBMC. The following applies: peptide 10 μg/ml. Here is the method: FIG. 2: Ex vivo detection of IFN-γ secretion by CD4^+ and CD8^+ T cell populations following stimulation with LMP1 peptides. CD4^+ cells or CD8^+ cells were depleted from fresh PBMCs using anti-human CD4 or CD8 immunomagnetic beads as described in the Material and Methods section. These cells were resuspended in growth medium and stimulated with […] (SEQ ID NO: 36; panel A) and […] (SEQ ID NO: 39; panel B) peptides (10 μg/ml) and then tested for IFN-γ secretion using ELISPOT assays.
CD4^+ cells or CD8^+ cells were depleted from fresh PBMCs using anti-human CD4 or CD8 immunomagnetic beads (Dynabeads M450-CD4 and M450-CD8), respectively (Dynal, Oslo, Norway) according to the manufacturer's instructions. Efficient depletion was confirmed by staining the depleted PBMCs using dual staining with FITC-conjugated anti-CD8 and PE-conjugated anti-CD4 antibody and flow cytometry on a Coulter EPICS XL cytometer. […]
To comprehensively profile the memory T cell responses against the LMP1 in seropositive virus carriers we used the ELISPOT assay, which allowed rapid ex vivo profiling of LMP1-specific immune response without prolonged in vitro culture. PBMC isolated from a panel of seropositive healthy virus carriers (Table 2) were stimulated with the complete set of overlapping LMP1 peptides and the cells that produced IFN-γ were detected. […]

[4] abbreviates: subject nineteen (NPC), donor theta.

In the case of YLMEILWRL, the “sensitizing autologous PHA blast to lysis by YLLEMLWRL-specific CTL clone” value in test [1] is “poorly recognized”.

In the case of IALYLQQNW, the “HLA B58-positive donors recognizing the epitope” value in test [2] (responders/tested) is recorded as 3/5. The “CTL response (SFC/10^6 PBMC)” value in test [2] (subject delta) is listed as 0 SFC/10^6 PBMC; in test [2] (subject eight), 1952 SFC/10^6 PBMC; in test [2] (subject eleven), 504 SFC/10^6 PBMC; in test [2] (subject eta (NPC)), 0 SFC/10^6 PBMC; in test [2] (subject five) it was 100 SFC/10^6 PBMC; in test [2] (subject fourteen), 955 SFC/10^6 PBMC. For the same sequence, the “CTL response (SFC/10^6 PBMC)” value in test [2] (subject gamma) is on record as 0 SFC/10^6 PBMC; in test [2] (subject nine), 240 SFC/10^6 PBMC; in test [2] (setting [4]) it was 0 SFC/10^6 PBMC; in test [2] (subject seventeen), 897 SFC/10^6 PBMC; in test [2] (subject six), 455 SFC/10^6 PBMC; in test [2] (subject ten), 80 SFC/10^6 PBMC. In addition, in test [2] (subject two), the “CTL response (SFC/10^6 PBMC)” value is given as 48 SFC/10^6 PBMC.

Take TDDSGHESDSNSNEGRH: the “T cell subset responding to the peptide” value in test [3] was “predominantly mediated by CD4+ cells”. In addition, the “healthy virus carriers tested recognizing the epitope” value in test [2] is “all three”. Further, the “healthy donors showing a CD8+ T-cell response in Elispot assays” value in test [2] (responders/healthy donors assessed) is on record as 3/21. Also, the magnitude of responses in test [2] (responding healthy donors) is 131-190 SFC/10^6 PBMC. For the same sequence, the “CTL response (SFC/10^6 PBMC)” value is on record as 190 SFC/10^6 PBMC in test [2] (subject seventeen), 131 SFC/10^6 PBMC in test [2] (subject ten) and 141 SFC/10^6 PBMC in test [2] (subject twenty). In addition, the “recognition of peptide coated autologous PHA blasts by polyclonal CTL lines” value in test [1] (CTL lines from two donors, data not shown) was “recognition”.

As for YFLEILWGL, the “sensitizing autologous PHA blast to lysis by YLLEMLWRL-specific CTL clone” value in test [1] is given as “poorly recognized”.

With YLLEMLWRL [reference compound], the “CTL response (SFC/10^6 PBMC)” value is 0 SFC/10^6 PBMC in test [2] (subject beta); 136 SFC/10^6 PBMC in test [2] (subject eleven); 0 SFC/10^6 PBMC in test [2] (subject epsilon); 300 SFC/10^6 PBMC in test [2] (subject fifteen); 0 SFC/10^6 PBMC in test [2] (subject four); 0 SFC/10^6 PBMC in test [2] (subject gamma). Moreover, the “CTL response (SFC/10^6 PBMC)” value was 0 SFC/10^6 PBMC in test [2] (setting [4]); 100 SFC/10^6 PBMC in test [2] (subject seven); 20 SFC/10^6 PBMC in test [2] (subject sixteen); 0 SFC/10^6 PBMC in test [2] (subject thirteen); 42 SFC/10^6 PBMC in test [2] (subject three); 0 SFC/10^6 PBMC in test [2] (subject twelve). Besides, the entries for the “CTL response (SFC/10^6 PBMC)” value in test [2] (subject twenty), in test [2] (subject twenty-one) and in test [2] (subject zeta) were 160 SFC/10^6 PBMC, 66 SFC/10^6 PBMC and 0 SFC/10^6 PBMC, respectively.

Regarding DSNSNEGRH, the “generation of CTL lines with minimised epitope” value in test [1] is reported as “did not generate CTL lines”.

Take ESDSNSNEG [reference compound]: the “generation of CTL lines with minimised epitope” value in test [1] is recorded as “did not generate CTL lines”.

In the case of ALLVLYSFA, the “CTL response (SFC/10^6 PBMC)” value in test [2] (subject beta) was found to be 0 SFC/10^6 PBMC; in test [2] (subject eighteen), 1184 SFC/10^6 PBMC; in test [2] (subject eleven), 128 SFC/10^6 PBMC; in test [2] (subject epsilon) it was 0 SFC/10^6 PBMC; in test [2] (subject fifteen), 80 SFC/10^6 PBMC; in test [2] (subject four), 0 SFC/10^6 PBMC. In addition, the “CTL response (SFC/10^6 PBMC)” value is 0 SFC/10^6 PBMC in test [2] (subject gamma); 0 SFC/10^6 PBMC in test [2] (setting [4]); 96 SFC/10^6 PBMC in test [2] (subject one); 480 SFC/10^6 PBMC in test [2] (subject six); 0 SFC/10^6 PBMC in test [2] (subject thirteen); 192 SFC/10^6 PBMC in test [2] (subject three). Besides, the “CTL response (SFC/10^6 PBMC)” value in test [2] (subject twenty) came out at 88 SFC/10^6 PBMC; in test [2] (subject twenty-one), 592 SFC/10^6 PBMC; in test [2] (subject twenty-two), 10 SFC/10^6 PBMC; in test [2] (subject zeta), 0 SFC/10^6 PBMC.

Consider YLQQNWWTL [reference compound], for which the “CTL response (SFC/10^6 PBMC)” value in test [2] (subject beta) is on record as 0 SFC/10^6 PBMC; in test [2] (subject eleven) it was 196 SFC/10^6 PBMC; in test [2] (subject epsilon) it was 0 SFC/10^6 PBMC; in test [2] (subject fifteen) it was 100 SFC/10^6 PBMC; in test [2] (subject four), 0 SFC/10^6 PBMC; in test [2] (subject gamma), 0 SFC/10^6 PBMC. In addition, the “CTL response (SFC/10^6 PBMC)” value in test [2] (setting [4]) was found to be 0 SFC/10^6 PBMC; in test [2] (subject seven) it was 110 SFC/10^6 PBMC; in test [2] (subject sixteen) it was 26 SFC/10^6 PBMC; in test [2] (subject thirteen), 0 SFC/10^6 PBMC; in test [2] (subject three), 28 SFC/10^6 PBMC; in test [2] (subject twelve) it was 44 SFC/10^6 PBMC. In addition, the results for the “CTL response (SFC/10^6 PBMC)” value in test [2] (subject twenty), in test [2] (subject twenty-one) and in test [2] (subject zeta) were 244 SFC/10^6 PBMC, 38 SFC/10^6 PBMC and 0 SFC/10^6 PBMC, respectively.

Consider DWTGGALLVLYSFALML [LMP1 17-mer peptide], for which the “T cell subset responding to the peptide” value in test [3] is “only CD8^+ T-cell dependent reactivity”.
